Measured values: patent US11040038B2, “Methods for treating diseases associated with abnormal ACVR1 expression and ACVR1 inhibitors for use in the same” (Sumitomo Dainippon Pharma Oncology, Inc., priority 2018, dated 2021)
Residue numbers refer to the chain shown, from its start.

Tests used:
[1] = IV and PO plasma pharmacokinetics in rats; format: in vivo; settings: Sprague-Dawley, rat, fasted female SD rats
Description: Pharmacokinetic and toxicology of Compound 2 were tested in rats. The intravenous (IV) and oral (PO) pharmacokinetics of Compound 2 were determined in plasma in fasted female Sprague-Dawley (SD) rats. The formulation used was 20% solutol and 80% saline for both administration routes. The nominal dose was 2 mg/kg (IV) and 20 mg/kg (PO). Samples were taken at 8 time points and the drug concentrations were determined by LC-MS/MS.

ACVR1 Wild Type = biological target: T1, ACVR1 Wild Type (Homo sapiens, UniProt Q04771); assay: ACVR1 kinase assay, casein substrate, 33P-ATP, filter binding; format: biochemical; settings: 10 μM ATP
T1 sequence (Q04771 21-509): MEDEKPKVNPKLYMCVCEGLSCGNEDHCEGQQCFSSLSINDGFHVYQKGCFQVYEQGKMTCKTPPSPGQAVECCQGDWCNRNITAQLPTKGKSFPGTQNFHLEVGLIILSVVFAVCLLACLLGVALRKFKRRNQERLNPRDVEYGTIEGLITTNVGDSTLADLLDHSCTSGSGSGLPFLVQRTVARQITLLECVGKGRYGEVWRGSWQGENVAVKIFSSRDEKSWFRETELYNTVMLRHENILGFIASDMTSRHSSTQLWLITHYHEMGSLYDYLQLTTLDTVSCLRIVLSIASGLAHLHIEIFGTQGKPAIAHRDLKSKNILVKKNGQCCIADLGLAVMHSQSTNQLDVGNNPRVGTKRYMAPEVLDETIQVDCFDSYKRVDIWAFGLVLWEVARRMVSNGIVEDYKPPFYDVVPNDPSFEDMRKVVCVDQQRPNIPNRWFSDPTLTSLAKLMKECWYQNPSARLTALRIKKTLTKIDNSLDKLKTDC
Description: (§1) In brief, casein-based substrates were prepared. The respective ACVR1 kinase was added to the substrate mixture and hot/cold 33P-ATP (10 μM) was added to initiate the reaction. The activity was then measured with a filter binding method.
(§2) The IC50 values against the kinases are listed below in Table 3.

ACVR1 R206H = biological target: T2, ACVR1 R206H (Homo sapiens, UniProt Q04771, R206H); assay: as above; format: biochemical; settings: 10 μM ATP
T2 sequence (Q04771 21-509 R206H): T1 sequence (Q04771 21-509) with R186H
Description: as §1, §2

[2] = Oral pharmacokinetics in a single human DIPG patient; format: in vivo; settings: free base, nominal 240 mg/m2 PO
Description: Compound 2 free base was tested in humans. Oral pharmacokinetics of Compound 2 were determined in a single human patient for the treatment of DIPG. The formulation was free base Compound 2 by gelatin capsule daily for 15 days, followed by a 20-day suspension period. Dosing was resumed by dissolving in juice and administering via nasogastric tube for 9 days. The nominal dose is 240 mg/m2 (PO). Blood samples were collected at four (4) time points and the drug concentrations are determined by LC-MS/MS.
Additional PK parameters were evaluated.

[3] = Pharmacokinetic and tissue distribution study; format: in vivo, CD-1 male mice; settings: mice, 20 mg/kg PO; for Cmax / Tmax / half-life / AUC(0-t) / AUC: male, CD-1, mouse; for AUC: read-out: AUC0-?
Description: An additional pharmacokinetic and tissue distribution study was conducted to comprehensively evaluate Compound 2 exposure in multiple mouse organs. CD-1 male mice were dosed 20 mg/kg, PO with Compound 2 formulated in 20% solutol and 80% saline. Plasma and organs were collected at nine (9) time points and the drug concentrations were determined by LC-MS/MS. […] The results confirmed exposure in clinically relevant target organs, including brain and liver (Table 7).

[4] = system: ALK2/ACVR1 having various mutations; assay: Activity on ALK2/ACVR1 having various mutations (FIG. 8); format: biochemical
Excerpt: Biochemical Studies indicate that mutations in the intracellular domain can have activating effects on ACVR1/ALK2 kinase activity. Many of the known mutations enhance the activity of the receptor in response to the receptor ligand.

COc1cc(Nc2nccc(Nc3cccnc3-c3ccccn3)n2)ccc1N1CCN(C)CC1 [Compound 2, N^4-(2,2′-bipyridin-3-yl)-N^2-(3-methoxy-4-(4-methylpiperazin-1-yl)phenyl)pyrimidine-2,4-diamine] showed an AUC ([1]; 20 mg/kg PO) of 2520 ng·h/mL, a Cmax ([1]; 20 mg/kg PO) of 159 ng/mL and a Tmax ([1]; 20 mg/kg PO) of 5.33 h. The half-life ([1]; 20 mg/kg PO) was 6.58 h, the bioavailability ([1]; 20 mg/kg PO vs 2 mg/kg IV, read-out: Oral Bioavailability (% F)) was 60.8% and the IC50 (ACVR1 Wild Type) was 4.5 nM. For the same compound, the IC50 (ACVR1 R206H) was 3.8 nM, the “Oral absorption, detection in plasma” value [2] was “detected in plasma 24 hours post-dosing” and the Cmax ([3]; adrenals) was 13800 ng/g. The Tmax ([3]; adrenals) was 1.3 h, the half-life ([3]; adrenals) was 3.3 h and the Cmax ([3]; bladder) was 2220 ng/g. For the same compound, the Tmax ([3]; bladder) was 3 h, the half-life ([3]; bladder) was 3.1 h and the AUC(0-t) ([3]; bone marrow) was 1940 ng·h/mL. For the same compound, the Cmax ([3]; bone marrow) was 240 ng/mL, the Tmax ([3]; bone marrow) was 4.5 h and the half-life ([3]; bone marrow) was 4.6 h. The AUC ([3]; bone marrow) was 2020 ng·h/mL, the Cmax ([3]; brain) was 1690 ng/g and the Tmax ([3]; brain) was 3.2 h. The half-life ([3]; brain) was 2.6 h, the Cmax ([3]; intestine) was 20200 ng/g and the Tmax ([3]; intestine) was 1.8 h. The half-life ([3]; intestine) was 3.6 h, the Cmax ([3]; kidney) was 31100 ng/g and the Tmax ([3]; kidney) was 2.3 h. The half-life ([3]; kidney) was 2.5 h, the Cmax ([3]; liver) was 79900 ng/g and the Tmax ([3]; liver) was 0.8 h. For the same compound, the half-life ([3]; liver) was 3.3 h, the Cmax ([3]; lung) was 18300 ng/g and the Tmax ([3]; lung) was 1.3 h. For the same compound, the half-life ([3]; lung) was 2.8 h, the Cmax ([3]; pancreas) was 10600 ng/g and the Tmax ([3]; pancreas) was 3.2 h. For the same compound, the half-life ([3]; pancreas) was 2.6 h, the AUC(0-t) ([3]; plasma) was 2340 ng·h/mL and the Cmax ([3]; plasma) was 378 ng/mL. It also gave a Tmax ([3]; plasma) of 1 h, a half-life ([3]; plasma) of 3.8 h and an AUC ([3]; plasma) of 2380 ng·h/mL. The Cmax ([3]; spleen) was 36200 ng/g, the Tmax ([3]; spleen) was 6 h and the half-life ([3]; spleen) was 13.3 h. It also gave a Cmax ([3]; stomach) of 17300 ng/g, a Tmax ([3]; stomach) of 0.5 h and a half-life ([3]; stomach) of 3.6 h. The “AUC0-?” value ([3]; adrenals) was 76421 ng*h/G, the AUCLast ([3]; adrenals) was 75782 ng*h/G and the “AUC0-?” value ([3]; bladder) was 17546 ng*h/G. For the same compound, the AUCLast ([3]; bladder) was 17386 ng*h/G, the “AUC0-?” value ([3]; brain) was 7756 ng*h/G and the AUCLast ([3]; brain) was 7729 ng*h/G. The “AUC0-?” value ([3]; intestine) was 52421 ng*h/G, the AUCLast ([3]; intestine) was 51891 ng*h/G and the “AUC0-?” value ([3]; kidney) was 152790 ng*h/G. The AUCLast ([3]; kidney) was 152492 ng*h/G, the “AUC0-?” value ([3]; liver) was 286210 ng*h/G and the AUCLast ([3]; liver) was 284827 ng*h/G. The “AUC0-?” value ([3]; lung) was 76908 ng*h/G, the AUCLast ([3]; lung) was 76622 ng*h/G and the “AUC0-?” value ([3]; pancreas) was 53297 ng*h/G. The AUCLast ([3]; pancreas) was 53163 ng*h/G, the “AUC0-?” value ([3]; spleen) was 627382 ng*h/G and the AUCLast ([3]; spleen) was 406119 ng*h/G. For the same compound, the “AUC0-?” value ([3]; stomach) was 32717 ng*h/G, the AUCLast ([3]; stomach) was 32467 ng*h/G and the “Inhibition of ALK2 receptors having various mutations” value [4] was “effective in inhibiting ALK2 receptors having various mutations”.
